Values of other authors as cited in paper PMC11084461, “The First Reciprocal Activities of Chiral Peptide Pharmaceuticals: Thymogen and Thymodepressin, as Examples” (International Journal of Molecular Sciences, 2024).
Like-named read-outs stand apart in the source and are kept apart here.

Assays:
[1] = tested on: hematopoietic progenitor cells; design: method as in ref 74 = [74]; 74. Semina O.V. Semenets T.N. Deigin V.I. Korotkov A.M. Vinogradova Y.E. Poverenny A.M. Stimulation with Thymogen (EW), a dipeptide that has immunoprotective properties to restore hematopoiesis in irr; settings: mice; for Protective effect on hematopoietic progenitor cells after Cytosar treatment: administered two days before Cytosar injection
[2] = tested on: autoantibodies; design: method as in ref 97 = [97]; 97. Krasilshchikova M. Leonov V. Zatsepina O. Deigin V. Immunosuppressor studies of Thymodepressin in the experimental autoimmune model Immunology 2009 5 290 294; settings: SJL/J mouse
[3] = tested on: thymocyte regeneration; design: method as in PMID 6971758; settings: same conditions for all isomers
[4] = tested on: hematopoietic stem cell progenitors; design: method as in ref 82 = [82]; 82. Vladimirskaya E.B. Osipova Y.E. Kaznacheev K.S. Ivanova K.A. Deigin V.I. Rumyantsev A.G. The effect of Thymodepressin on the proliferation of human hematopoietic progenitor cells Hematol. Transfus; settings: in vitro in methylcellulose, MTT test; dose range from 1 µg/mL to 10 µg/mL
[5] = tested on: colony-forming unit (CFU); design: method as in PMID 30927190; settings: lethally irradiated mice, i/p on days 1, 2 and 3 after allogeneic bone marrow transplantation
[6] = tested on: bone marrow cells; design: method as in PMID 16307056; settings: mice irradiated 4 Gy, treated seven days after irradiation, read on day eight
[7] = tested on: bone marrow; design: method as in ref 92 = [92]; 92. Dyadkin V.Y. Shamov B.A. The experimental application of Thymodepressin in patients with psoriasis Dermatology 2003 1 36; settings: pre-treatment two days before irradiation; seven days after irradiation, persisted 14 observation days
[8] = tested on: psoriasis vulgaris; design: method as in PMID 15199399
[9] = tested on: CFU-C-8 cells; design: method as in PMID 19145362
[10] = tested on: mature T-lymphocyte; design: method as in PMID 12360601; settings: indicated by changed CD25+ and CD69+ markers
[11] = tested on: leukocytes; design: method as in ref 75 = [75]; 75. Vinogradova Y.E. Deigin V.I. Korotkov A.M. Semina O.V. Sements T.N. Poverenny A.M. Use of Thymogen for the treatment of patients with diseases of the blood system. The influence of Thymogen on the; settings: patients after polychemotherapy receiving Thymogen
[12] = experimental group (29 patients)

Cyclosporine [reference compound]
Protective effect on hematopoietic progenitor cells after Cytosar treatment [1]: had no effect | Effective dose, prophylactic regimen [2]: 20 to 50 mg/kg | Dose at which statistically significant effect was achieved ([2]; prophylactic regimen): 50 mg/kg

D-Glu(D-Trp) [Thymodepressin]
Influence on thymocyte regeneration (restoring E-rosette-forming units) [3]: effective inhibitors of thymocyte regeneration | Cloning efficiency of hematopoietic stem cell progenitors [4]: suppresses the cloning efficiency of all hematopoietic stem cell progenitors | Yield of colonies compared to the control animals [5]: approximately four times | Rate of dividing bone marrow cells [6]: below that of the intact control | Bone marrow cell number (cellularity) [7]: restored to an intact level | Protective effect on hematopoietic progenitor cells after Cytosar treatment [1]: completely protected | Number of CFU-S-8 colonies ([1]; two days before Cytosar, after 3 h and up to seven days): restored the number of CFU-S-8 colonies to an intact level | Dose of most effective immunosuppression, therapeutic regimen [2]: 0.7 mg/kg | Immunosuppressive effect, prophylactic regimen ([2]; doses 0.14, 0.35 and 0.7 mg/kg): pronounced immunosuppressive effect | Immunosuppressive effect, therapeutic regimen ([2]; doses 0.14, 0.35 and 0.7 mg/kg): distinct immunosuppressive effect | Persistence of effect after the end of the drug administration ([2]; prophylactic regimen): over ten weeks | Clinical improvement [8, 12]: 13 patients | Significant clinical improvement [8, 12]: 16 patients | PASI (Psoriasis Area and Severity Index) ([8]; experimental group (29 patients), 1st day of treatment, i/m 1 mL 0.1% solution): 26.8 | PASI (Psoriasis Area and Severity Index) ([8]; experimental group, 21st day, three i/m courses of 1 mL 0.1% solution daily for five days): 8.6 | Decrease in the PASI index ([8]; experimental group, day 1 to day 21): 70% | Number of leucocytes in the blood ([9]; experimental animal, after administration of the peptide): dose-dependent transient decrease | Number of committed CFU-C-8 cells in the S-phase of the cell cycle ([9]; in vitro and in vivo): reducing the number of committed CFU-C-8 cells in the S-phase | Mature T-lymphocyte activation [10]: suppression of mature T-lymphocyte activation

D-Glu-D-Trp
Influence on thymocyte regeneration (restoring E-rosette-forming units) [3]: effective inhibitors of thymocyte regeneration

L-Glu-L-Trp [Thymogen]
Influence on thymocyte regeneration (restoring E-rosette-forming units) [3]: stimulating activity | Average leukocyte count compared to the group receiving protocol treatment [11]: doubled

L-Glu–(L-Trp)-OH
Influence on thymocyte regeneration (restoring E-rosette-forming units) [3]: stimulating activity
